Results from patent US20090311264A1, “Use of Disorazoles and Their Derivatives for the Treatment of Benign and Malignant Oncoses” (AEterna Zentaris GmbH, priority 2003, published 2009).
Values after ≈ are worked out from the molar mass of the structure shown. “Also recorded” adds a separate entry of the source. Where two headings read alike, the source gives them in different places.

Assays:
[1] = test system: human cervical carcinoma cell line KB/HeLa; assay: XTT proliferation assay, KB/HeLa; type: cell-based; conditions: for EC50: Homo sapiens, HeLa
Description: (§1) The compounds according to the invention were investigated for their antiproliferative activity in a proliferation test on established tumor cell lines (D. A. Scuderio et al. Cancer Res. 1988, 48, 4827-4833). The test used determines the cellular dehydrogenase activity and makes possible a determination of the cell vitality and indirectly of the cell count. The cell lines used are the human cervical carcinoma cell line KB/HeLa (ATCC CCL17), the ovarian adenocarcinoma cell line SKOV-3 (ATCC HTB77), the human glioblastoma cell line SF-268 (NCI 503138), the lung carcinoma cell line NCI-H460 (NCI 503473) and the human colon adenocarcinoma cell line RKOP 27.

[2] = test system: ovarian adenocarcinoma cell line SKOV-3; assay: XTT proliferation assay, SKOV-3; type: cell-based, human; conditions: for EC50: Homo sapiens, SK-OV-3, read-out: XTT proliferation assay, EC50, SKOV3
Description: as §1

[3] = test system: human glioblastoma cell line SF-268; assay: XTT proliferation assay, SF-268; type: cell-based; conditions: for EC50: Homo sapiens
Description: as §1

[4] = test system: lung carcinoma cell line NCI-H460; assay: XTT proliferation assay, NCI-H460; type: cell-based, human; conditions: for EC50: Homo sapiens, NCI-H460, read-out: XTT proliferation assay, EC50, NCl-H460
Description: as §1

[5] = test system: human colon adenocarcinoma cell line RKOP 27; assay: XTT proliferation assay, RKOP 27; type: cell-based
Description: as §1

[6] = test system: bovine β-tubulin; assay: Inhibition of the polymerization of tubulin; type: biochemical; conditions: n = 2
Method: The substances were tested in an in-vitro test for inhibition of the polymerization of bovine β-tubulin (D. M. Bollag et al. Cancer Res. 1995, 55, 2325-2333). In this test, tubulin purified by cycles of polymerization and depolymerization is employed, and is polymerized by addition of GTP and warming. The EC50 values of the inhibition of polymerization of β-tubulin with and without 30% associated proteins (MAPs) are indicated in table 3.

[7] = test system: acute myeloid leukemia cell line LT12; assay: XTT proliferation test, LT12 (nonresistant); type: cell-based; conditions: for EC50: Rattus norvegicus
Description: (§2) For further characterization, the substances according to the invention were investigated against multi-drug-resistant cell lines (MDR) in comparison to the nonresistant wild-type cell lines. The cell lines investigated are the acute myeloid leukemia cell line LT1 and the resistant line LT12/mdr. Moreover, the murine P388 cell line (methylcholanthrene-induced lymphoid neoplasm) and the doxorubicin-resistant P388 were used as test systems.

[8] = test system: resistant line LT12/mdr; assay: XTT proliferation test, LT12MDR (resistant); type: cell-based; conditions: for EC50: Rattus norvegicus, LT12
Description: as §2

[9] = test system: murine P388 cell line; assay: XTT proliferation test, P388 (nonresistant); type: cell-based; conditions: for EC50: Mus musculus
Description: as §2

[10] = test system: doxorubicin-resistant P388; assay: XTT proliferation test, P388ADR (resistant); type: cell-based, murine; conditions: for EC50: Mus musculus, P388
Description: as §2

[11] = test system: KB/HeLa cells; assay: Cell cycle analysis (G2/M arrest); type: cell-based, human; conditions: 24 hours at 37° C., read-out: EC50 (50% cells in G2/M)
[12] = test system: NCI-H460 tumor xenograft; assay: In vivo therapy experiment, NCI-H460 tumor xenograft; set-up: species or system nude mice; conditions: for cases of death: n = 8 animals/group
Method: The in-vivo activity of the compounds according to the invention was tested on human and murine xenograft models.

[13] = test system: Salmonella typhimurium TA100; type: cell-based; conditions: for AMES TA100 with S9: with rat liver enzyme S9
Method: (§3) For the estimation of possible side effects, disorazole E1 was investigated for mutagenicity in a fluctuation assay against the mutant strains TA98 and TA100 of the bacterium Salmonella typhimurium at three concentrations (2.5; 5 and 10 μM). The mutagenicity investigations were further carried out in the presence of the rat liver enzyme S9.

[14] = test system: Salmonella typhimurium TA98; type: cell-based; conditions: for AMES TA98 with S9: with rat liver enzyme S9
Method: as §3

[15] = test system: primary human hepatocytes; assay: Survival of nonproliferating cells (alamarBlue); type: cell-based; conditions: 1 μM, n = 3
Description: (§4) For the estimation of the possible side-effect potential, the influence of disorazole E1 on nonproliferating cells and on the protein biosynthesis was investigated (table 6).

[16] = test system: human hepatocellular carcinoma cells (HepG2); assay: Protein synthesis (incorporation of 14C-methionine); type: cell-based; conditions: 1 μM, 14C-methionine incorporation, n = 2
Description: as §4

Structure (SMILES): C/C=C/[C@H](O)C(C)(C)[C@@H]1C\C=C/C=C\C=C\[C@H](OC)Cc2nc(co2)C(=O)O[C@H](C(C)(C)[C@@H](O)/C=C/C)C/C=C\[C@H]2O[C@H]2/C=C/C=C\c2nc(co2)C(=O)O1 [Disorazole A1]
- XTT proliferation assay, EC50, KB/Hela [1]: 0.15 ng/mL
- XTT proliferation assay, EC50, SKOV3 [2]: 0.2 ng/mL
- XTT proliferation assay, EC50, SF-268 [3]: 0.27 ng/mL
- XTT proliferation assay, EC50, NCl-H460 [4]: 0.15 ng/mL
- XTT proliferation assay, EC50, RKOP 27 [5]: 0.25 ng/mL
- Inhibition of the polymerization of β-tubulin, EC50 with 30% MAPs [6]: 4.80 µg/mL

Structure (SMILES): C/C=C/C(O)C(C)(C)C1C/C=C\C2OC2C=CC(OC)Cc2nc(co2)C(=O)OC(C(C)(C)C(O)/C=C/C)C/C=C\C2OC2/C=C\C=Cc2nc(co2)C(=O)O1 (centres unmarked) [Disorazole E1]
- XTT proliferation assay, EC50, KB/Hela [1]: 0.07 ng/mL
- XTT proliferation assay, EC50, SKOV3 [2]: 0.02 ng/mL
- XTT proliferation assay, EC50, SF-268 [3]: 0.17 ng/mL
- XTT proliferation assay, EC50, NCl-H460 [4]: 0.04 ng/mL
- XTT proliferation assay, EC50, RKOP 27 [5]: 0.06 ng/mL
- XTT proliferation assay, EC50, LT12 [7]: 0.1 ng/mL
- XTT proliferation assay, EC50, LT12MDR [8]: 4 ng/mL
- XTT proliferation assay, EC50, P388 [9]: 0.4 ng/mL
- XTT proliferation assay, EC50, P388ADR [10]: 1 ng/mL
- Inhibition of the polymerization of β-tubulin, EC50 with 30% MAPs [6]: 1.50 µg/mL
- EC50 [11]: 1.6 nM
- cases of death ([12]; 0.05 mg/kg, i.v.: day 0, 7, 14): 0.05 mg/kg; i.v.: day 0, 7, 14; no cases of
- cases of death ([12]; 0.1 mg/kg, i.v.: day 0, 7, 14): 0.1 mg/kg; i.v.: day 0, 7, 14; no cases of
- cases of death ([12]; 0.25 mg/kg, i.v.: day 0, 7, dead on day 11, 12, 13): 0.25 mg/kg; i.v.: day 0, 7; 8 dead (day
- reduction of the tumor growth ([12]; i.v., NCI-H460 xenograft-bearing nude mice, at doses without weight decrease or mortality): significant reduction in tumor growth; also recorded: significant reduction of the tumor growth
- weight decrease ([12]; i.v., at doses reducing tumor growth): no significant weight decrease
- AMES TA100 with S9 ([13]; 2.5 μM): inactive
- AMES TA100 without S9 ([13]; 2.5 μM): inactive
- AMES TA100 with S9 ([13]; 5 μM): inactive
- AMES TA100 without S9 ([13]; 5 μM): inactive
- AMES TA100 with S9 ([13]; 10 μM): inactive
- AMES TA100 without S9 ([13]; 10 μM): inactive
- AMES TA98 with S9 ([14]; 2.5 μM): inactive
- AMES TA98 without S9 ([14]; 2.5 μM): inactive
- AMES TA98 with S9 ([14]; 5 μM): inactive
- AMES TA98 without S9 ([14]; 5 μM): inactive
- AMES TA98 with S9 ([14]; 10 μM): inactive
- AMES TA98 without S9 ([14]; 10 μM): inactive
- AMES test, overall result ([14]; TA98 and TA100, with and without S9, 2.5, 5 and 10 μM): AMES test-inactive
- Surviving cells, primary human hepatocytes, Average, % of control [15]: 119.6 % of control
- Protein synthesis, Average, % of control [16]: 95.9 % of control

Structure (SMILES): CC(=O)O[C@H]1C(=O)[C@@]2(C)[C@H]([C@H](OC(=O)c3ccccc3)[C@]3(O)C[C@H](OC(=O)[C@H](O)[C@@H](NC(=O)c4ccccc4)c4ccccc4)C(C)=C1C3(C)C)[C@]1(OC(C)=O)CO[C@@H]1C[C@@H]2O [Paclitaxel]
- EC50 [1]: 10 ng/mL (≈ 0.0117 µM)
- EC50 [2]: 10 ng/mL (≈ 0.0117 µM)
- EC50 [3]: 10 ng/mL (≈ 0.0117 µM)
- EC50 [4]: 10 ng/mL (≈ 0.0117 µM)
- EC50 [7]: 5 ng/mL (≈ 0.00586 µM)
- EC50 [8]: 0.34 µg/mL (≈ 0.398 µM)
- EC50 [9]: 0.035 µg/mL (≈ 0.041 µM)
- EC50 [10]: > 3.16 µg/mL
- EC50 ([11]; Homo sapiens): 46 nM

Structure (SMILES): CC[C@]1(O)C[C@@H]2CN(CCc3c([nH]c4ccccc34)[C@@](C(=O)OC)(c3cc4c(cc3OC)N(C)[C@H]3[C@@](O)(C(N)=O)[C@H](O)[C@]5(CC)C=CCN6CC[C@]43[C@@H]65)C2)C1 [Vindesine]
- EC50 [1]: 2 ng/mL (≈ 0.00265 µM)
- EC50 [2]: 2 ng/mL (≈ 0.00265 µM)
- EC50 [3]: 5 ng/mL (≈ 0.00663 µM)
- EC50 [4]: 6 ng/mL (≈ 0.00796 µM)
- EC50 [7]: 0.9 ng/mL (≈ 0.00119 µM)
- EC50 [8]: 0.222 µg/mL (≈ 0.294 µM)
- EC50 [9]: 0.009 µg/mL (≈ 0.0119 µM)
- EC50 [10]: 0.94 µg/mL (≈ 1.25 µM)
- Inhibition of the polymerization of β-tubulin, EC50 with 30% MAPs [6]: 0.40 µg/mL
- EC50 ([11]; Homo sapiens): 3 nM
